Results from ChEMBL document CHEMBL3877281, “Extending the structure-activity relationship study of marine natural ningalin B analogues as P-glycoprotein inhibitors” (Eur J Med Chem, 2017).

Legend:
Homo sapiens [1] = species on record: Homo sapiens; experiment: Inhibition of P-gp in human MDA435/LCC6MDR cells assessed as potentiation of paclitaxel-induced cytotoxicity at 1 uM measured after 5 days by Cell Titer 96 Aqueous assay relative to paclitaxel alone; assay type: cell-based
Homo sapiens [2] = species on record: Homo sapiens; experiment: Potency index, ratio of EC50 for verapamil to EC50 for test compound for inhibition of P-gp in human MDA435/LCC6MDR cells assessed as reduction of vincristine cytotoxic IC50 by half; assay type: cell-based
P-gp [3] = experiment: Selectivity index, ratio of IC50 for cytotoxicity against mouse L929 cells to EC50 for inhibition of P-gp in human MDA435/LCC6MDR cells assessed as reduction of paclitaxel cytotoxic IC50 by half; assay type: toxicity, cell-based; settings: probe paclitaxel, read-out: Ratio IC50/EC50
P-gp [4] = experiment: Selectivity index, ratio of IC50 for cytotoxicity against mouse L929 cells to EC50 for inhibition of P-gp in human MDA435/LCC6MDR cells assessed as reduction of vincristine cytotoxic IC50 by half; assay type: toxicity, cell-based; settings: probe vincristine, read-out: Ratio IC50/EC50
P-gp [5] = experiment: Selectivity index, ratio of IC50 for cytotoxicity against mouse L929 cells to EC50 for inhibition of P-gp in human MDA435/LCC6MDR cells assessed as reduction of doxorubicin cytotoxic IC50 by half; assay type: toxicity, cell-based; settings: probe doxorubicin, read-out: Ratio IC50/EC50
Homo sapiens [6] = species on record: Homo sapiens; experiment: Potency index, ratio of EC50 for verapamil to EC50 for test compound for inhibition of P-gp in human MDA435/LCC6MDR cells assessed as reduction of doxorubicin cytotoxic IC50 by half; assay type: cell-based
Homo sapiens [7] = species on record: Homo sapiens; experiment: Inhibition of P-gp in human MDA435/LCC6MDR cells assessed as increase in rhodamine-123 accumulation at 2 uM measured after 150 mins by fluorescence spectrophotometric method relative to control; assay type: cell-based
[8] = Inhibition of P-gp in human MDA435/LCC6MDR cells assessed as increase in doxorubicin accumulation to half of parental LCC6 cells measured after 150 mins by fluorescence spectrophotometric method; assay type: cell-based; settings: MDA-435/LCC6, 2.5 h
Homo sapiens [9] = species on record: Homo sapiens; experiment: Potency index, ratio of compound effect to verapamil effect for inhibition of P-gp in human MDA435/LCC6MDR cells assessed as increase in rhodamine-123 accumulation; assay type: cell-based
[10] = Inhibition of P-gp in human MDA435/LCC6MDR cells assessed as reduction of vincristine cytotoxic IC50 by half measured after 5 days by Cell Titer 96 Aqueous assay; assay type: cell-based; settings: 120 h
[11] = Cytotoxicity against mouse L929 cells measured after 3 days by MTS assay; assay type: toxicity
Homo sapiens [12] = species on record: Homo sapiens; experiment: Potency index, ratio of EC50 for verapamil to EC50 for test compound for inhibition of P-gp in human MDA435/LCC6MDR cells assessed as reduction of paclitaxel cytotoxic IC50 by half; assay type: cell-based
Homo sapiens [13] = species on record: Homo sapiens; experiment: Potency index, ratio of EC50 for verapamil to EC50 for test compound for inhibition of P-gp in human MDA435/LCC6MDR cells assessed as reduction of vinblastine cytotoxic IC50 by half; assay type: cell-based
[14] = Inhibition of P-gp in human MDA435/LCC6MDR cells assessed as reduction of vinblastine cytotoxic IC50 by half measured after 5 days by Cell Titer 96 Aqueous assay; assay type: cell-based; settings: 120 h
P-gp [15] = experiment: Selectivity index, ratio of IC50 for cytotoxicity against mouse L929 cells to EC50 for inhibition of P-gp in human MDA435/LCC6MDR cells assessed as reduction of vinblastine cytotoxic IC50 by half; assay type: toxicity, cell-based; settings: probe vinblastine, read-out: Ratio IC50/EC50
[16] = Inhibition of P-gp in human MDA435/LCC6MDR cells assessed as reduction of doxorubicin cytotoxic IC50 by half after 5 days by Cell Titer 96 Aqueous assay; assay type: cell-based; settings: 120 h
[17] = Inhibition of P-gp in human MDA435/LCC6MDR cells assessed as reduction of paclitaxel cytotoxic IC50 by half measured after 5 days by Cell Titer 96 Aqueous assay; assay type: cell-based; settings: 120 h
Homo sapiens [18] = species on record: Homo sapiens; experiment: Inhibition of P-gp in human MDA435/LCC6MDR cells assessed as increase in doxorubicin accumulation at 2 uM measured after 150 mins by fluorescence spectrophotometric method relative to control; assay type: cell-based

| Structure (SMILES) | fold change (FC) (Homo sapiens [1]) | also measured |
| --- | --- | --- |
| COc1ccc(C(=O)CN2C(=O)c3ccccc3C2=O)cc1 | 1.3 | – |
| COc1cc(C(=O)CN2C(=O)c3ccccc3C2=O)ccc1OCc1ccccc1 | 1.1 | – |
| COc1ccc(C(=O)CN2C(=O)C(c3ccc(OC)cc3)=C(c3ccc(OC)c(OC)c3)C2=O)cc1 | 2.7 | – |
| COc1ccc(C2=C(c3ccc(C)cc3)C(=O)N(CC(=O)c3ccc(OCc4ccccc4)c(OC)c3)C2=O)cc1OC | 8.6 | – |
| COc1cc(CN2C(=O)c3ccccc3C2=O)cc(OC)c1OC | 1.2 | – |
| COc1ccc(C2=C(c3ccc(OC)c(OC)c3)C(=O)N(CC(=O)c3ccc(OCc4ccccc4)c(OC)c3)C2=O)cc1 | 22.1 | – |
| COc1ccc(C2=C(c3ccc(OC)c(OC)c3)C(=O)N(Cc3ccc(S(C)(=O)=O)cc3)C2=O)cc1OC | 3.4 | – |
| COc1ccc(C2=CC(=O)N(CC(=O)c3ccc(OCc4ccccc4)c(OC)c3)C2=O)cc1OC | 1.4 | – |
| COc1ccc(C2=C(c3ccc(C)cc3)C(=O)N(CC(=O)c3ccc(S(C)(=O)=O)cc3)C2=O)cc1OC | 2 | – |
| COc1ccc(C2=C(c3ccc(OC)c(OC)c3)C(=O)N(Cc3ccc(OCc4ccccc4)cc3)C2=O)cc1OC | 4.2 | – |
| COc1cccc(C2=C(c3ccc(OC)c(OC)c3)C(=O)N(Cc3cc(OC)c(OC)c(OC)c3)C2=O)c1 | 11.4 | – |
| COc1ccc(C(=O)CN2C(=O)C(c3ccc(OC)c(OC)c3)=C(c3ccc(OC)c(OC)c3)C2=O)cc1 | 7.6 | – |
| COc1ccc(C2=C(c3ccc(OC)c(OCc4ccccc4)c3)C(=O)N(Cc3cc(OC)c(OC)c(OC)c3)C2=O)cc1OC | 11.9 | – |
| COc1ccc(C2=C(SC)C(=O)N(CC(=O)c3ccc(OCc4ccccc4)c(OC)c3)C2=O)cc1OC | 1.4 | – |
| COc1ccc(C2=C(c3ccc(OC)c(OC)c3)C(=O)N(CC(=O)c3ccc(OCc4ccccc4)c(OC)c3)C2=O)cc1OC | 39.8 | – |
| COc1ccc(C2=C(c3ccc(OC)c(OC)c3)C(=O)N(Cc3ccc(OCc4ccccc4)c(OC)c3)C2=O)cc1OC | 9.3 | – |
| COc1ccc(C2=C(c3ccc(C)cc3)C(=O)N(Cc3ccc(S(C)(=O)=O)cc3)C2=O)cc1OC | 3 | – |
| COc1ccc(C2=C(c3ccc(OC)c(OC)c3)C(=O)N(CC(=O)c3ccc(S(C)(=O)=O)cc3)C2=O)cc1OC | 1.4 | – |
| COc1ccc(C2=C(c3ccc(OC)c(OC)c3)C(=O)N(CC(=O)c3ccc(OCc4cc(OC)c(OC)c(OC)c4Br)c(OC)c3)C2=O)cc1OC | 48 | Ratio EC50 (Homo sapiens [2]): 2 to 3.7; selectivity ratio (P-gp [3]): > 606; selectivity ratio (P-gp [4]): > 758; selectivity ratio (P-gp [5]): > 833; Ratio EC50 (Homo sapiens [6]): 2 to 3.7; fold change (FC) (Homo sapiens [7]): 4.8; EC50 [8]: 78 nM; Ratio (Homo sapiens [9]): 1.7; EC50 [10]: 132 nM; IC50 at 3 days [11]: > 100000 nM; Ratio EC50 (Homo sapiens [12]): 2 to 3.7; Ratio EC50 (Homo sapiens [13]): 2 to 3.7; EC50 [14]: 137 nM; selectivity ratio (P-gp [15]): > 730; EC50 [16]: 120 nM; EC50 [17]: 165 nM; fold change (FC) (Homo sapiens [18]): 2.4 |
| COc1ccc(C2=C(c3ccc(OC)c(OC)c3)C(=O)N(Cc3cc(OC)c(OC)c(OC)c3)C2=O)cc1 | 5.1 | – |
| COc1ccc(C2=C(c3ccc(OCc4ccccc4)c(OC)c3)C(=O)N(CC(=O)c3ccc(OCc4ccccc4)c(OC)c3)C2=O)cc1OC | 1.4 | – |
| COc1ccc(CCN(C)CCCC(C#N)(c2ccc(OC)c(OC)c2)C(C)C)cc1OC (stereo unspecified) [VERAPAMIL] | – | IC50 at 3 days [11]: 89000 nM |
| COc1ccc(C(=O)CN2C(=O)C(c3ccccc3)=C(c3ccc(OC)c(OC)c3)C2=O)cc1 | 2.6 | – |
| COc1ccc(C(=O)CN2C(=O)C(c3ccc(OC)c(OC)c3)=C(c3ccc(OCc4ccccc4)c(OC)c3)C2=O)cc1 | 4.5 | – |
| COc1ccc(C2=C(c3ccc(OC)c(OC)c3)C(=O)N(Cc3cc(OC)c(OC)c(OC)c3)C2=O)cc1OC | 13.8 | – |
| COc1cccc(C2=C(c3ccc(OC)c(OC)c3)C(=O)N(CC(=O)c3ccc(OCc4ccccc4)c(OC)c3)C2=O)c1 | 8.8 | – |
| COc1ccc(C2=C(c3ccccc3)C(=O)N(CC(=O)c3ccc(OCc4ccccc4)c(OC)c3)C2=O)cc1OC | 5.9 | – |
| COc1ccc(C2=C(c3ccccc3)C(=O)N(Cc3cc(OC)c(OC)c(OC)c3)C2=O)cc1OC | 7.1 | – |
| COc1ccc(C(=O)CN2C(=O)C(c3cccc(OC)c3)=C(c3ccc(OC)c(OC)c3)C2=O)cc1 | 3.5 | – |
